Patent US5177077A, “1,4-disubstituted piperazines” (Novo Nordisk A/S, priority 1990, dated 1993)
Where two headings read alike, the source gives them in different places.

Tests used:
[1] = biological target: T1, DA-uptake complex (Rattus norvegicus, UniProt P23977); assay: Test 1: inhibition of 3H-GBR 12935 binding to the DA-uptake complex in a striatal membrane preparation
T1 construct: in a striatal membrane preparation; from tissue; host or cells: striatal membranes
Protocol: The compounds were tested for their ability to inhibit the binding of 3H-GBR 12935 to the DA-uptake complex in a striatal membrane preparation following the method described by Andersen (Eur. J. Pharmacol. 166: 493-504, 1989).

[2] = system: motility of mice; assay: Test 2: increase of motility of mice (photocell crossings); format: in vivo, Male NMRI mice; conditions: for ED50: Mus musculus, po, lowest ED50 determined at a 20 min interval during the 360 min test period, drugs administered orally
Protocol: The compounds were also tested for their ability to increase the motility of mice following intravenous administration using the method outlined below.
Male NMRI mice are used (20±2 g). The animals are housed 20-30 per cage under constant temperature (20°±1°) and relative humidity (40-60%). The animals are brought into the experimental room in the afternoon, the day before they undergo testing.
The experimentally-naive mice are acclimatized by being placed in a plexiglass box (WLH: 20×20×38 cm), four per box, for a 120 min period, and then treated with the test compound whereafter they are replaced in the plexiglass box.
The plexiglass box is equipped with a frame of photocells (spaced equidistantly) which are situated so as to detect locomotor behaviour of the animals (1 cm above the floor). The photocell chamber is housed in an sound-insulated, dimly-lit, ventilated chest. As a measure of exploratory behaviour, the number of photocell crossings in a 360 min period is detected using a minicomputer. Testing is made between 7:00 and 17.00 h.
Drugs are administered orally simultaneously with start of testing; N=4/dose; 4-5 doses of test drug is given in a volume of 10 ml/kg.
Computer programmed log-probit methods are used to generate an ED50 in mg/kg using as minimum the control result, and as maximum values are used 7700 (this latter value has been experimentally found as the maximum motility counts after d-amphetamine in a 20 min period).
The test result is the lowest ED50 value determined at a 20 min interval during the 360 min test period.

T1 sequence (P23977 whole entry, one chain of several): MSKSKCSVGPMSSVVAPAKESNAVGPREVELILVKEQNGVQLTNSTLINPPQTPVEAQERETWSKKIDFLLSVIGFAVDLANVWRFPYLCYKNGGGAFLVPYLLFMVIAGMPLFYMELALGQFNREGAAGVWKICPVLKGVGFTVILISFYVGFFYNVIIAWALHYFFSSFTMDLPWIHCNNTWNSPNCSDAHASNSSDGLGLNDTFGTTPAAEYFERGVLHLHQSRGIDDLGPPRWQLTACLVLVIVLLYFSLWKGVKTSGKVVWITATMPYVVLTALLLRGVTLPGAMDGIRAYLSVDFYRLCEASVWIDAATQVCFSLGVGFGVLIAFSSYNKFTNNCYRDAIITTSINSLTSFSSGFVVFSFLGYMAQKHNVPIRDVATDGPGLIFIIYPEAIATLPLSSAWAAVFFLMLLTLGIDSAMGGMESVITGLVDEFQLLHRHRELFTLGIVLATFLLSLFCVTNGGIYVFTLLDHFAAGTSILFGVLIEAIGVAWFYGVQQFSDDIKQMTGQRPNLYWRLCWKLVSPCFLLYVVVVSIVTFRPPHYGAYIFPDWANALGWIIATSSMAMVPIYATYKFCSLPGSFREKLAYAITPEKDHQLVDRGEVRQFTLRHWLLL

Compound Cc1ccsc1C(OCCN1CCN(CCCc2ccccc2)CC1)c1ccc(F)cc1 (stereo not shown) [Example 1] has an IC50 ([1]; striatal membrane preparation, method of Andersen 1989, read-out: Test 1 (inhibition of 3H-GBR 12935 binding)) of 9 nM and an ED50 [2] of 30 mg/kg.

Fc1ccc(C(OCCN2CCN(CC=Cc3ccco3)CC2)c2cccs2)cc1 (stereo not shown) [Example 2, 1-[2-((4-fluorophenyl)-(2-thienyl)methoxy)ethyl]-4-[3-(2-furyl)-2-propenyl]piperazine] gave an IC50 [1] of 4.7 nM and an ED50 [2] of 17.4 mg/kg.

Fc1ccc(C(OCCN2CCN(CCCc3ccccc3)CC2)c2ccsc2)cc1 (stereo not shown) [Example 3, 1-[2-((4-fluorophenyl)-(3-thienyl)methoxy)ethyl]-4-(3-phenylpropyl)piperazine] gave an IC50 [1] of 3.7 nM and an ED50 [2] of 32 mg/kg.

For C[C@H](N)Cc1ccccc1 [d-amphetamine, reference compound], the maximum motility counts ([2]; in a 20 min period, used as maximum for the log-probit ED50) was 7700.
